Source: PMC4876393, “Structure of the Dictyostelium Myosin-II Heavy Chain Kinase A (MHCK-A) α-kinase domain apoenzyme reveals a novel autoinhibited conformation” (Scientific Reports, 2016)
Non-standard residues stand in square brackets, D forms with d. Residues, ends and D or L forms follow the SMILES beside them. pT = C[C@@H](OP(=O)(O)O)[C@H](N)C(=O)O

Experiments:
[1] = system: eEF2K; parameters: method as in PMID 22115317; conditions: with and without Ca^2+-calmodulin; ref [40]; cited from earlier work
[2] = target: T1, A-CAT-Δ809 (Dictyostelium discoideum, UniProt P42527); assay: Activation of truncated A-CAT-Δ809 kinase activity by phosphopeptides (Pi-pocket binding); type: biochemical; conditions: 22 °C, pH 7.0, mean and standard deviation of at least 3 separate experiments; for Kd: hyperbolic fit of A-CAT-Δ809 kinase activity vs peptide, assayed as described in ref [29], 2 mM MgCl2, 1 mM dithiothreitol, 20 mM TES; for Vmax: kinase activity as a percentage of wild-type A-CAT activity, hyperbolic fit
T1 construct: A-CAT encompasses the α-kinase domain and Thr825 autophosphorylation site of MHCK-A; made in house; host or cells: E. coli (printed for A-CAT and A-CAT-D663A)
T1 sequence (P42527 552-809 limits assumed): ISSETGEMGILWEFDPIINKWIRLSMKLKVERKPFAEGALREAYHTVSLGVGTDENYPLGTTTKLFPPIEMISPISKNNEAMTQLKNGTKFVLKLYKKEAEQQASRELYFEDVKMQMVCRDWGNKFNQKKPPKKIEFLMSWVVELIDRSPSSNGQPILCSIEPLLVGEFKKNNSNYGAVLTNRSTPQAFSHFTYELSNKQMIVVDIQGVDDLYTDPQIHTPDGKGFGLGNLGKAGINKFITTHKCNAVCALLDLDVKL
Experimental: (c) The kinase activity of A-CAT-Δ809 was assayed in the presence of peptides with the sequences QQG(p)TMVMPD (closed circles) or a QQG(p)TMSMPD (open circles). […] Kinase activities are reported as a percentage of wild-type A-CAT activity.
To test whether a hydrophobic residue in the P + 2 position favors binding to the Pi-pocket, experiments were carried out using a truncated A-CAT (A-CAT-Δ809) that lacks the activating Thr825 site of autophosphorylation and two phosphopeptides: one with a valine and one with a serine at the P + 2 position (QQG(p)TMVMPD and QQG(p)TMSMPD) (Fig. 3c).
Assays were carried out at 22 °C in a buffer containing 2 mM MgCl2, 1 mM dithiothreitol and 20 mM TES, pH 7.0. Kinase assays contained 20 μM myelin basic protein (MBP), 0.5–2 μM A-CAT and 200 μM [γ-^32P]ATP (specific activity 100 cpm/pmol). At each time point, 20 μl aliquots of the reaction mixture were spotted onto squares of Whatman P81 phosphocellulose paper, which were then washed 1% phosphoric acid, immersed in ScintiVerse Universal LS Mixture (Fisher Scientific), and counted using a Beckman LS 9000 scintillation counter. Assays to measure A-CAT-Δ809 activity in the presence of the QQG(p)TMVMPD and QQG(p)TMSMPD peptides were carried out as described[29]. […] Data from the initial linear portion of the time courses were used to calculate kinase and ATPase activity.

[3] = target: T2, D663S (Dictyostelium discoideum, UniProt P42527, D663S); assay: Nucleotide binding assay with fluorescent mant-ADP on purified A-CAT, carried out as previously described (ref 51); at least 3 separate experiments.; conditions: read-out: mant-ADP Kd; SD, n = 3
T2 construct: gene mhkA; A-CAT: alpha-kinase domain and Thr825 autophosphorylation site of MHCK-A
T2 sequence (P42527 552-841 D663S): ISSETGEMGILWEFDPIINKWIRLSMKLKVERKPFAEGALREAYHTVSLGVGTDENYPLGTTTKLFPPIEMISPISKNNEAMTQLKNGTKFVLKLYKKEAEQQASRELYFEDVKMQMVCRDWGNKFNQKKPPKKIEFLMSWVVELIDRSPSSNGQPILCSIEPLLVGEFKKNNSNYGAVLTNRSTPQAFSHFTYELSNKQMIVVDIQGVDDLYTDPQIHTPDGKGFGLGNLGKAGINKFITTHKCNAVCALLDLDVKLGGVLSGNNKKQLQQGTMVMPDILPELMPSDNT
Experimental: (§1) Assays were carried out at 22 °C in a buffer containing 2 mM MgCl2, 1 mM dithiothreitol and 20 mM TES, pH 7.0. Kinase assays contained 20 μM myelin basic protein (MBP), 0.5–2 μM A-CAT and 200 μM [γ-^32P]ATP (specific activity 100 cpm/pmol). At each time point, 20 μl aliquots of the reaction mixture were spotted onto squares of Whatman P81 phosphocellulose paper, which were then washed 1% phosphoric acid, immersed in ScintiVerse Universal LS Mixture (Fisher Scientific), and counted using a Beckman LS 9000 scintillation counter. Assays to measure A-CAT-Δ809 activity in the presence of the QQG(p)TMVMPD and QQG(p)TMSMPD peptides were carried out as described. ATPase activity was assayed using 250 μM ATP and release of inorganic phosphate (Pi) was measured using the Pi ColorLock Gold phosphate detection system (Innova Biosciences). Data from the initial linear portion of the time courses were used to calculate kinase and ATPase activity. Nucleotide binding assays using mant-ATP and mant-ADP were carried out as previously described. Results represent the mean and standard deviation of at least 3 separate experiments.

[4] = target: T3, D663A (Dictyostelium discoideum, UniProt P42527, D663A); assay: as above; conditions: read-out: mant-ADP Kd; SD, n = 3
T3 construct: gene mhkA; A-CAT: alpha-kinase domain and Thr825 autophosphorylation site of MHCK-A; expressed in E. coli
T3 sequence (P42527 552-841 D663A): T2 sequence (P42527 552-841 D663S)
Experimental: as §1

[5] = target: T4, Y647A (Dictyostelium discoideum, UniProt P42527, Y647A); assay: as above; conditions: read-out: mant-ADP Kd; SD, n = 3
T4 construct: gene mhkA; A-CAT: alpha-kinase domain and Thr825 autophosphorylation site of MHCK-A
T4 sequence (P42527 552-841 Y647A): T2 sequence (P42527 552-841 D663S)
Experimental: as §1

[6] = target: T5, A-CAT WT (Dictyostelium discoideum, UniProt P42527); assay: as above; conditions: SD, n = 3
T5 construct: gene mhkA; A-CAT: alpha-kinase domain and Thr825 autophosphorylation site of MHCK-A; expressed in E. coli
T5 sequence (P42527 552-841): T2 sequence (P42527 552-841 D663S)
Experimental: as §1

[7] = target: A-CAT D663A; assay: mant-nucleotide binding to A-CAT D663A; parameters: species or system Dictyostelium; conditions: for Kd: A-CAT D663A, 22 °C, 2 mM MgCl2, 1 mM dithiothreitol, 20 mM TES, pH 7.0, mean and standard deviation of at least 3 separate experiments; for effect of the D663A mutation on nucleotide binding: compared with wild-type A-CAT
Experimental: as §1

[8] = target: A-CAT Y647F; assay: mant-nucleotide binding to A-CAT Y647F; parameters: species or system Dictyostelium; conditions: 22 °C, 2 mM MgCl2, 1 mM dithiothreitol, 20 mM TES, pH 7.0, mean and standard deviation of at least 3 separate experiments
Experimental: as §1

[9] = target: A-CAT Y647A; assay: mant-nucleotide binding to A-CAT Y647A; parameters: species or system Dictyostelium; conditions: for Kd: A-CAT Y647A, 22 °C, 2 mM MgCl2, 1 mM dithiothreitol, 20 mM TES, pH 7.0, mean and standard deviation of at least 3 separate experiments; for effect of the Y647A mutation on nucleotide binding: compared with wild-type A-CAT
Experimental: as §1

[10] = target: A-CAT D663S; assay: mant-nucleotide binding to A-CAT D663S; parameters: species or system Dictyostelium; conditions: for Kd: A-CAT D663S, 22 °C, 2 mM MgCl2, 1 mM dithiothreitol, 20 mM TES, pH 7.0, mean and standard deviation of at least 3 separate experiments; for effect of the D663S mutation on nucleotide binding: compared with wild-type A-CAT
Experimental: as §1

[11] = target: T2, D663S; assay: Nucleotide binding assay with fluorescent mant-ATP on purified A-CAT, carried out as previously described (ref 51); at least 3 separate experiments.; conditions: read-out: mant-ATP Kd; SD, n = 3
Experimental: as §1

[12] = target: T6, Y647F (Dictyostelium discoideum, UniProt P42527, Y647F); assay: as above; conditions: read-out: mant-ATP Kd; SD, n = 3
T6 construct: gene mhkA; A-CAT: alpha-kinase domain and Thr825 autophosphorylation site of MHCK-A
T6 sequence (P42527 552-841 Y647F): T2 sequence (P42527 552-841 D663S)
Experimental: as §1

[13] = target: T3, D663A; assay: as above; conditions: read-out: mant-ATP Kd; SD, n = 3
Experimental: as §1

[14] = target: T4, Y647A; assay: as above; conditions: read-out: mant-ATP Kd; SD, n = 3
Experimental: as §1

[15] = target: T5, A-CAT WT; assay: as above; conditions: SD, n = 3
Experimental: as §1

Nc1ncnc2c1ncn2[C@@H]1O[C@H](COP(=O)(O)OP(=O)(O)OP(=O)(O)O)[C@@H](O)[C@H]1O [ATP]
ATP binding to eEF2K [1]: binds ATP in the presence and absence of Ca^2+-calmodulin | UV cross-linking of ATP to eEF2K [1]: can be UV cross-linked to ATP only in the presence of Ca^2+-calmodulin

CSCC[C@H](NC(=O)[C@@H](NC(=O)CNC(=O)[C@H](CCC(N)=O)NC(=O)[C@@H](N)CCC(N)=O)[C@@H](C)OP(=O)(O)O)C(=O)N[C@@H](CO)C(=O)N[C@@H](CCSC)C(=O)N1CCC[C@H]1C(=O)N[C@@H](CC(=O)O)C(=O)O [QQG(p)TMSMPD] (H-QQG[pT]MSMPD-OH)
Kd [2]: 98 ± 12 µM | Vmax [2]: 51 ± 3%

CSCC[C@H](NC(=O)[C@@H](NC(=O)CNC(=O)[C@H](CCC(N)=O)NC(=O)[C@@H](N)CCC(N)=O)[C@@H](C)OP(=O)(O)O)C(=O)N[C@H](C(=O)N[C@@H](CCSC)C(=O)N1CCC[C@H]1C(=O)N[C@@H](CC(=O)O)C(=O)O)C(C)C [QQG(p)TMVMPD] (H-QQG[pT]MVMPD-OH)
Kd [2]: 38 ± 12 µM | Vmax [2]: 61 ± 4%

CNc1ccccc1C(=O)O[C@H]1[C@@H](O)[C@H](n2cnc3c(N)ncnc32)O[C@@H]1COP(=O)(O)OP(=O)(O)O [mant-ADP, 2'/3'-O-(N-methylanthraniloyl)adenosine 5'-diphosphate]
Kd [3]: 12 ± 2 µM | Kd [4]: 8 ± 2 µM | Kd [5]: 30 ± 2 µM | Kd [6]: 15 ± 2 µM

CNc1ccccc1C(=O)O[C@H]1[C@@H](O)[C@H](n2cnc3c(N)ncnc32)O[C@@H]1COP(=O)(O)OP(=O)(O)O [mant-ADP]
Kd [7]: 8 ± 2 µM | effect of the D663A mutation on nucleotide binding [7]: increased the affinity of A-CAT for nucleotide | Kd [8]: 15 ± 2 µM | Kd [9]: 30 ± 2 µM | effect of the Y647A mutation on nucleotide binding [9]: weakened the binding | Kd [10]: 12 ± 2 µM | effect of the D663S mutation on nucleotide binding [10]: increased the affinity of A-CAT for nucleotide

CNc1ccccc1C(=O)O[C@H]1[C@@H](O)[C@H](n2cnc3c(N)ncnc32)O[C@@H]1CO[P@@](=O)(O)O[P@](=O)(O)OP(=O)(O)O [mant-ATP, 2'/3'-O-(N-methylanthraniloyl)adenosine 5'-triphosphate]
Kd [11]: 2.1 ± 0.5 µM | Kd [12]: 4.3 ± 1 µM | Kd [13]: 3.2 ± 0.9 µM | Kd [14]: 10 ± 3 µM | Kd [15]: 4.8 ± 0.6 µM

CNc1ccccc1C(=O)O[C@H]1[C@@H](O)[C@H](n2cnc3c(N)ncnc32)O[C@@H]1COP(=O)(O)OP(=O)(O)OP(=O)(O)O [mant-ATP]
Kd [7]: 3.2 ± 0.9 µM | effect of the D663A mutation on nucleotide binding [7]: increased the affinity of A-CAT for nucleotide | Kd [8]: 4.3 ± 1 µM | Kd [9]: 10 ± 3 µM | effect of the Y647A mutation on nucleotide binding [9]: weakened the binding | Kd [10]: 2.1 ± 0.5 µM | effect of the D663S mutation on nucleotide binding [10]: increased the affinity of A-CAT for nucleotide
